What all share (test): Clark electrode O2 uptake, cytochrome c / ascorbate / TMPD
What all share (assay type): biochemical

Test [1] deals with T1, Rhodobacter sphaeroides cytochrome c oxidase (RsCcO) (Cereibacter sphaeroides, UniProt P33517+Q03736, Q03736:E101A).
In test [2] the target is T1, Rhodobacter sphaeroides cytochrome c oxidase (RsCcO). This is another data set of the same source.
The target of test [3] is Rhodobacter sphaeroides cytochrome c oxidase (RsCcO) (Cereibacter sphaeroides, UniProt P33517+Q03736). Conditions: read-out: K1/2; inhibition; 0.01% DDM, pH 7.4, 30 μM bovine cytochrome c.
Chain of Rhodobacter sphaeroides cytochrome c oxidase (RsCcO) (Cereibacter sphaeroides, UniProt P33517+Q03736) (P33517 whole entry): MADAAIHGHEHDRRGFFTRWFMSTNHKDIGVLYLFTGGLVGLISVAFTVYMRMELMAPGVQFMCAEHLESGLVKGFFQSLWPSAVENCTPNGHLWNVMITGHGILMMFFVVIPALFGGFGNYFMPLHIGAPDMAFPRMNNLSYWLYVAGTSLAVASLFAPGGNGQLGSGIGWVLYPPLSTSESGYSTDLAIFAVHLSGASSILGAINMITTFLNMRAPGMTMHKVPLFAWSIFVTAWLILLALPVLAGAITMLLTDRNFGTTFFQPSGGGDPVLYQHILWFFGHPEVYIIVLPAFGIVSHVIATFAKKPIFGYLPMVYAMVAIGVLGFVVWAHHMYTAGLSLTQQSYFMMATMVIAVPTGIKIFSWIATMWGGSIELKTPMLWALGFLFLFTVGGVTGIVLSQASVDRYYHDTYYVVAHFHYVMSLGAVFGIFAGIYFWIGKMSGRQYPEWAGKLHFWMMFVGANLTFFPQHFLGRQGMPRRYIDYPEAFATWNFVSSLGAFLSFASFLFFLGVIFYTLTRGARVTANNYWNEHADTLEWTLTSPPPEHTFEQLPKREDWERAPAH
Chain of Rhodobacter sphaeroides cytochrome c oxidase (RsCcO) (Cereibacter sphaeroides, UniProt P33517+Q03736) (Q03736 26-303 limits assumed): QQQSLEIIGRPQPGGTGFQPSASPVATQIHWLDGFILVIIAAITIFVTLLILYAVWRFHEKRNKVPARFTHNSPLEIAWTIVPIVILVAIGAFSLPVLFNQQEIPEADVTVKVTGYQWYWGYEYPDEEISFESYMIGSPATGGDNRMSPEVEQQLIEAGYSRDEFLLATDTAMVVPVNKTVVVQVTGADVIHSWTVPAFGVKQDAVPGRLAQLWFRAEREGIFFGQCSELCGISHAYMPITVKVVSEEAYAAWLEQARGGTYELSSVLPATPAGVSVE

T1 sequence (P33517 whole entry): as the sequence (P33517 whole entry) above
T1 sequence (Q03736 26-303 E101A limits assumed): as the sequence (Q03736 26-303 limits assumed) above, with E76A counted along it

As a reminder, the EC50 is the concentration giving half of the maximal effect. A lower EC50 goes with higher potency in that assay. `C=CC1=C(C)/C(=C/c2[nH]c(Cc3[nH]c(/C=C4\NC(=O)C(C)=C4C=C)c(C)c3CCC(=O)O)c(CCC(=O)O)c2C)NC1=O` [bilirubin] registered an EC50 in test [1] of roughly 50 µM.
For `C[C@H](CCC(=O)O)[C@H]1CC[C@H]2[C@@H]3[C@H](O)C[C@@H]4C[C@H](O)CC[C@]4(C)[C@H]3C[C@H](O)[C@]12C` [cholate], a half-maximal effect in test [1] (EC50) was put at 200 µM.
On the same count and under the same terms, the same measure for `CC(C)CCC[C@@H](C)[C@H]1CC[C@H]2[C@@H]3CC=C4C[C@@H](OC(=O)CCC(=O)O)CC[C@]4(C)[C@H]3CC[C@]12C` [cholesteryl hemisuccinate]: roughly 80 µM.
In test [2], `CCCCCCCC/C=C\CCCCCCCC(=O)OC[C@@H](O)COP(=O)([O-])OCC[N+](C)(C)C` [lyso-oleoyl phosphatidylcholine] gave an IC50 of roughly 17 µM.
`CC(C)CCCC(C)CCCC(C)CCCC(C)CC(=O)O` (centres unmarked) [phytanic acid] displayed an EC50 in test [1] of roughly 4 µM.
On the same count and under the same terms, next, `C=CC1=C(C)c2cc3[nH]c(cc4nc(cc5[nH]c(cc1n2)c(C)c5CCC(=O)O)C(CCC(=O)O)=C4C)c(C)c3C=C` [protoporphyrin IX]: roughly 14 µM; `CC1=C(/C=C/C(C)=C/C=C/C(C)=C/C(=O)O)C(C)(C)CCC1` [retinoic acid]: roughly 8 µM.
As for CHOBIMALT, the IC50 in test [3] is roughly 200 µM.

These data come from paper PMC3622084 (Biochemistry, 2013).
